Laboratory results reported in patent US6476076B1 (priority 1999, dated 2002).

How the values were obtained:
DRG neurons = experiment: cells; assay type: cell-based; settings: Rattus norvegicus, DRG neuron, 10 min, read-out: 45Ca Influx EC50
[1] = test system: acetic acid-induced writhing in ICR mice; experiment: animal or person; assay type: in vivo, mouse; settings: Mus musculus, ip, read-out: Writhing Test ED50
[2] = test system: rat eye (eye-wiping response); settings: in vivo
[3] = test system: PBQ-induced writhing in ICR mice; experiment: animal or person; assay type: in vivo, mouse
[4] = test system: TPA-induced ear edema in ICR mice; settings: mouse, in vivo

Structure (SMILES)	EC50 (DRG neurons) [nM]	ED50 [1] [µg/kg]	MPP: moderate pain-producing potency [2] [%]	RPP: relative pain-producing potency [2]	ED50 ([3]; Mus musculus, ip, read-out: Writhing Test ED50) [µg/kg]	Relative Potency (Writhing Test) ([3]; mouse, in vivo)	Ear Edema Assay ID50 [4] [μg/ear]	Relative Potency (Ear Edema Assay) [4]	antiinflammatory activity in the TPA ear edema assay (in words) [4]
COc1cc(CNC(=S)NCC(COC(=O)C(C)(C)C)Cc2ccc(C)c(C)c2)ccc1OCCN (stereo not shown) [36a, 2,2-Dimethyl Propionic Acid 2-{3-[4-(2-Aminoethoxy)-3-methoxybenzyl]thioureido Methyl}-3-(3,4-dimethylphenyl)propyl Ester]	83 ± 12	14							
COc1cc(CNC(=S)NCC(COC(=O)C(C)(C)C)Cc2ccc(C(C)(C)C)cc2)ccc1OCCN (stereo not shown) [36b, 2,2-Dimethyl Propionic Acid 2-{3-[4-(2-Aminoethoxy)-3-methoxybenzyl]thioureido Methyl}-3-(4-t-butylphenyl)propyl Ester]	377 ± 67	48.2							
COc1cc(CC(=O)NCCCc2ccc(C)c(C)c2)ccc1OCCN [DA-5018, 2-[4-(2-aminoethoxy)-3-methoxyphenyl]-N-[3-(3,4-dimethylphenyl)propyl]acetamide, reference compound]	234	2.27	0.003	10	3	100	200	0.015	weak topical activity
